Numbers after ± are expanded uncertainties.
How the values were obtained:
[1] = molar heat capacity at saturation pressure; conditions: Liquid, Vacuum adiabatic calorimetry
[2] = Boiling temperature at pressure P; conditions: Liquid, Ebulliometric method (Recirculating still)
[3] = 101.33 kPa, Liquid, Pycnometric method

CC(C)CCOC(=O)C(C)O (configuration not stated) [isopentyl 2-hydroxypropanoate]
Conditions	Boiling temperature at pressure P [°C]	mass density [kg/m3]	molar heat capacity [J/K/mol]
[1], 288.15 K	–	–	360.71 ± 3.6
[1], 293.65 K	–	–	362.52 ± 3.6
[1], 298.15 K	–	–	364.02 ± 3.7
[1], 303.55 K	–	–	365.85 ± 3.7
[1], 308.95 K	–	–	367.71 ± 3.7
[1], 313.65 K	–	–	369.34 ± 3.7
[1], 318.45 K	–	–	371.04 ± 3.7
[1], 323.65 K	–	–	372.9 ± 3.8
[1], 328.25 K	–	–	374.56 ± 3.8
[1], 333.85 K	–	–	376.6 ± 3.8
[1], 338.75 K	–	–	378.4 ± 3.8
[1], 343.05 K	–	–	380 ± 3.8
[1], 348.55 K	–	–	382.06 ± 3.8
[1], 353.15 K	–	–	383.8 ± 3.9
[1], 358.45 K	–	–	385.81 ± 3.9
[1], 363.35 K	–	–	387.69 ± 3.9
[1], 368.05 K	–	–	389.51 ± 3.9
[1], 373.75 K	–	–	391.72 ± 3.9
[1], 378.85 K	–	–	393.72 ± 4
[1], 383.35 K	–	–	395.5 ± 4
[1], 388.65 K	–	–	397.6 ± 4
[1], 393.25 K	–	–	399.44 ± 4
[1], 398.45 K	–	–	401.54 ± 4
[1], 403.15 K	–	–	403.44 ± 4.1
[1], 408.65 K	–	–	405.69 ± 4.1
[1], 413.15 K	–	–	407.54 ± 4.1
[1], 418.85 K	–	–	409.91 ± 4.1
[1], 423.95 K	–	–	412.04 ± 4.1
[1], 428.45 K	–	–	413.94 ± 4.2
[1], 433.15 K	–	–	415.95 ± 4.2
[1], 438.55 K	–	–	418.27 ± 4.2
[1], 443.65 K	–	–	420.49 ± 4.2
[1], 448.15 K	–	–	422.47 ± 4.2
[1], 453.65 K	–	–	424.92 ± 4.3
[2], 4.5 kPa	101.44 ± 1.6	–	–
[2], 8.6 kPa	118.64 ± 1.4	–	–
[2], 13.8 kPa	131.41 ± 1.2	–	–
[2], 18.4 kPa	139.2 ± 1.1	–	–
[2], 22.8 kPa	146.61 ± 1.1	–	–
[2], 27.9 kPa	153.00 ± 1.1	–	–
[2], 33.2 kPa	158.40 ± 1	–	–
[2], 38.6 kPa	163.80 ± 1	–	–
[2], 42.9 kPa	168.23 ± 1	–	–
[2], 48.2 kPa	171.66 ± 1	–	–
[2], 52.3 kPa	174.60 ± 1	–	–
[2], 57.6 kPa	178.1 ± 1	–	–
[2], 62.3 kPa	182.00 ± 1	–	–
[2], 69.2 kPa	186.00 ± 1	–	–
[2], 72.7 kPa	188.32 ± 1	–	–
[2], 77 kPa	190.7 ± 1	–	–
[2], 82 kPa	192.98 ± 1	–	–
[2], 87.2 kPa	195.31 ± 1	–	–
[2], 91.4 kPa	197.64 ± 1	–	–
[2], 95.7 kPa	199.20 ± 1	–	–
[2], 100.7 kPa	201.00 ± 1	–	–
[2], 110.3 kPa	205.41 ± 1	–	–
[3], 288.15 K	–	976 ± 9	–
[3], 293.65 K	–	973.5 ± 9	–
[3], 298.15 K	–	969.5 ± 9	–
[3], 303.15 K	–	965 ± 9	–
[3], 308.15 K	–	960.6 ± 9	–
[3], 315.65 K	–	954.9 ± 9	–
[3], 320.15 K	–	950 ± 9	–
[3], 326.15 K	–	945.3 ± 9	–
[3], 331.65 K	–	939.8 ± 9	–
[3], 336.15 K	–	937.8 ± 9	–
[3], 341.45 K	–	931.1 ± 9	–
[3], 346.15 K	–	928 ± 9	–
[3], 350.95 K	–	922.7 ± 9	–
[3], 355.65 K	–	917 ± 9	–
[3], 361.65 K	–	913.2 ± 9	–
[3], 367.15 K	–	908 ± 9	–
[3], 373.15 K	–	903 ± 9	–
[3], 378.45 K	–	898.3 ± 9	–
[3], 383.45 K	–	893 ± 9	–
[3], 390.65 K	–	887.5 ± 9	–
[3], 397.15 K	–	883.1 ± 9	–
[3], 404.35 K	–	876.4 ± 9	–
[3], 410.85 K	–	869.6 ± 9	–
[3], 417.05 K	–	864.7 ± 9	–
[3], 420.45 K	–	861 ± 9	–
[3], 424.75 K	–	854.7 ± 9	–
[3], 428.15 K	–	854.2 ± 9	–
[3], 434.25 K	–	848.9 ± 9	–
[3], 441.75 K	–	842.2 ± 9	–
[3], 448.55 K	–	836 ± 9	–
[3], 453.15 K	–	832 ± 9	–
